In experiment [1] the target is T1, lecithin retinol acyl transferase (LRAT) (Bos taurus, UniProt Q9BGL2).
T1 construct: a microsomal fraction isolated from bovine retinal pigment epithelial cells; from tissue; host or cells: bovine retinal pigment epithelium, microsomal fraction
T1 sequence (Q9BGL2 1-230): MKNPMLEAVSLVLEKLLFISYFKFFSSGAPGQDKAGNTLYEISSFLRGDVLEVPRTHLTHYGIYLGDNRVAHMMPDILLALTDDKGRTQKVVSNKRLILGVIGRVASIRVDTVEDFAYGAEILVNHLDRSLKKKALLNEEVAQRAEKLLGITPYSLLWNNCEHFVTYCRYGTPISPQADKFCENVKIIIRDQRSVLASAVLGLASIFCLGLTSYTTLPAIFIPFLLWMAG
Put plainly: In vitro Microsomal Assay, LRAT catalyzed retinol esterification (retinyl laurate formation). It is filed as biochemical, bovine.
Description: (§2) A solution containing 0.1M sodium phosphate pH 7 buffer, 5mM dithiothreitol, 2 mg/ml bovine serum albumin, 40 micromolar palmitoyl CoA, 40 micromolar dilauroyl phosphatidyl choline, 10 micromolar retinol and a test compound or a solvent blank, is incubated for 1 hour at 37°C with a microsomal fraction isolated from bovine retinal pigment epithelial cells. After incubation, the reaction is quenched by addition of an equal volume of ethanol, and the retinyl esters formed (retinyl laurate from the LRAT catalyzed reaction and retinyl palmitate from ARAT catalyzed reaction) are extracted with hexane.
(§3) A solution containing 0.1M sodium phosphate pH 7 buffer, 5mM dithiothreitol, 2 mg/ml bovine serum albumin, 40 micromolar palmitoyl CoA, 40 micromolar dilauroyl phosphatidyl choline, 10 micromolar retinol and a test compound or solvent blank, was incubated for 1 hour at 37°C with a microsomal fraction isolated from bovine retinal pigment epithelial cells. After incubation, the reaction was quenched by addition of an equal volume of ethanol, and the retinyl esters formed (retinyl palmitate from the ARAT catalyzed reaction, and retinyl laurate from the LRAT catalyzed reaction) were extracted with hexane.

For experiment [2], the system named is acyl CoA retinol transferase (ARAT). Put plainly: In vitro Microsomal Assay, ARAT catalyzed retinol esterification (retinyl palmitate formation). It is filed as biochemical, bovine.
Description: as §2, §3
Experiment [3] deals with Human keratinocytes. Kind of experiment: Transglutaminase Assay (TGase I ELISA, procedure for other Examples), normalized to DNA; keratinocyte differentiation. It is filed as cell-based. Conditions: for TGase/ DNA (% control) / mean TGase/ DNA x10^5 ± s.d: 72 hour treatment; for mean TGase/ DNA x10^5 ± s.d: n = 3; for % Control: 1 mM, transglutaminase normalized to DNA; for activity at 1 µM: 1 micromolar, read-out: % of Control. Here is the method:
(§1) Human keratinocytes, isolated from neonatal foreskin by trypsin treatment were grown in Dulbecco Modification Eagle (DME) Hams F12 (1:1) medium/10% fetal calf serum in the presence of irradiated 3T3 mouse fibroblasts for establishing dividing keratinocyte colonies. Cells were grown under the above condition until their second passage and kept frozen for future use. Frozen second passage keratinocytes were thawed and plated into the above medium and grown for five days before they were switched to a serum-free MCDB 153-based medium keratinocyte growth medium (KGM) from Clonetics Corporation, San Diego, CA, containing 0.15 mM Ca, or keratinocyte serum-free media (KSFM) from GIBCO containing 0.09 mM Ca). On day 7, when the cells were 80-90% confluent, they were trypsinized and plated in the serum-free medium for the various experiments.
During the process of terminal differentiation in the epidermis, a 15nm thick layer of protein, known as the cornified envelope (CE) is formed on the inner surface of the cell periphery. The CE is composed of numerous distinct proteins which have been cross-linked together by the formation of N^ε-(γ-glutamyl) lysine isodipeptide bonds catalyzed by the action of at least two different transglutaminases (TGases) expressed in the epidermis. Transglutaminase I (TGase I) is expressed in abundance in the differentiated layers of the epidermis, especially the granular layer, but is absent in the undifferentiated basal epidermis. Thus TGase I is a useful marker of epidermal keratinocyte differentiation with high TGase I levels indicating a more differentiated state. An ELISA based TGase I assay, using a TGase I antibody, was used to assess the state of differentiation of the cultured keratinocytes in the examples that follow.
Keratinocytes (cultured as described above) were plated in 96 well plates at a density of 3,000 cells per well in 200µl of cell culture media. After incubation for four days, the media was changed to media containing test compounds (six replicates per test). The cells were cultured for a further 72 hours after which time the media was aspirated and the plates stored at -70°C. After the plates were removed from the freezer, the cells were further freezed fractured by freezing and thawing and then washed 3x with PBS. The cells were incubated for one hour at room temperature (R/T) with TBS/5% BSA buffer. Cells were then incubated with 100µl of monoclonal anti-human transglutaminase (IgG) mouse antibody (primary antibody) obtained from Biomedical Technologies Inc. diluted 1:2000 in TBS/1% BSA buffer for two hours at 37°C, and then rinsed six times with wash buffer (TBS/1% BSA/0.05% Tween-20). Cells were next incubated with 100µl of Fab fragment, peroxidase conjugated anti-mouse IgG antibody (secondary antibody) from Amersham diluted 1:4,000 in wash buffer for two hours at 37°C and then rinsed three times with wash buffer and three times with PBS. Cells were incubated with substrate solution (4mg o-phenylene diamine and 3.3µl 30% H2O2 in 10mL 0.1M citrate buffer, pH 5.0) for five minutes at R/T and in darkness (under aluminum foil). The reaction was stopped by the addition of 50µl 4N H2SO4. The absorbance of samples was read at 492nm in the plate reader. Out of the six replicates, four were treated with both antibodies, two were treated only with the secondary antibody (i.e., to determine the background binding of the enzyme conjugated antibody). Transglutaminase I levels were determined by subtracted background from the readings from each treatment and determining the mean ± s.d. for the replicates exposed to both antibodies.
The level of TGase I detected after treatment of the cells could be influenced by cell number, i.e., the greater the number of cells the greater the level of TGase-1 detected. The level of Tgase I was normalized to DNA content of the cells in the same well thus eliminating variation due to differences in cell number. […]
On the technique in general: ELISA stands for enzyme-linked immunosorbent assay.

Experiment [4] relates to Human keratinocytes. Put plainly: 3H-Thymidine incorporation, keratinocyte proliferation. It is filed as cell-based. Conditions: 250 nM. Here is the method:
as §1
The incorporation of ^3H-thymidine by cultured keratinocytes was used as an assay of keratinocyte proliferation. Thymidine is one of four deoxynucleosides which are the monomeric units of DNA, the universal library of genetic information in the animal kingdom. Prior to cell division of a somatic cell such as a keratinocyte, the complete genome of the cell undergoing cell division is replicated. This involves large scale DNA synthesis by the cell and enables both daughter cells to receive identical copies of the genetic material. When ^3H-thymidine is included in the culture media of keratinocytes which are synthesizing DNA in preparation for cell division then the labelled nucleoside is incorporated into the newly synthesized DNA. The extent of incorporation of ^3H-thymidine into a population of cells is proportional to the rate of DNA synthesis by this population of cells and therefore an indication of their cellular proliferation.
Keratinocytes (that were cultured as described above) were plated in 24 well plates at a density of 20,000 cells per well in 1 ml media. After incubation for four days or until the cells were 60-70% confluent, the media was changed. Test compounds were added (in triplicate) to the wells 24 hours after the media change, and four hours later 1µCi ^3H-Thymidine in 50 µl media was added per well. Cells were incubated for a further 24 hours. Media was removed from the cells, 10% ice cold trichloroacetic acid (TCA) added and plates were incubated on ice for 30 minutes. Cells were washed five times with 5% TCA and allowed to dissolve in 500 µl 0.1M NaOH for at least one hour (usually overnight). The preparations were neutralized with 0.1M HCl; 50 µl of the cell preparation was used to determine total protein content. Disintegrations per minute (DPM) from ^3H labelling of DNA was determined by liquid scintillation counting of 900µl of the cell preparation. Thymidine incorporation results were expressed as DPM/µg protein.
(Incorporation of labelled thymidine or its analogues reports DNA synthesis.)

Where [5] appears, read: Table 10, 100 µM, read-out: % INHIBITION, LRAT.
The mark [6] stands for this setting: Table 5A, 100µM, read-out: % INHIBITION, LRAT.
The mark [7] stands for this setting: Table 2, 100 µM, read-out: % INHIB. LRAT.

Results on 14 molecules are retold here after EP0932387B1 (UNILEVER PLC, priority 1996, dated 1998).

Like-named read-outs stand apart in the source and are kept apart here.

With `CCCCCCCCCCCC1=NCCN1CCO` [Lauryl, lauryl hydroxyethyl imidazoline], the inhibition at 10 µM in experiment [1] (Table 3, 10 micromolar, read-out: % INHIB. LRAT) is 0%. The inhibition at 100 µM in experiment [1] (Table 3, 100 micromolar, read-out: % INHIB. LRAT) was 47%.

Consider `O=C1C[C@@H](c2ccc(O)cc2)Oc2cc(O)cc(O)c21` [Naringenin, naringenin], for which the “% INHIBITION, ARAT” value in experiment [2] (Table 10, 100 µM) was 33%. Also, the inhibition at 100 µM in experiment [1] (setting [5]) is 14%. Also, in the experiment on Human keratinocytes [3] (Table 11, 10^-7M), the “TGase/ DNA (% control)” value came to 94% and the “mean TGase/ DNA x10^5 ± s.d” value is 49.84 ± 2.76. Moreover, in the experiment on Human keratinocytes [3] (Table 12, 10^-8M), the “TGase/ DNA (% control)” value was 89% and the “mean TGase/ DNA x10^5 ± s.d” value came out at 45.01 ± 1.90.

Turning to `O=c1c(O)c(-c2ccc(O)c(O)c2)oc2cc(O)cc(O)c12` [Quercetin, quercetin], the “% INHIBITION, ARAT” value in experiment [2] (Table 10, 100 µM) came to 25%. For the same molecule, the inhibition at 100 µM in experiment [1] (setting [5]) came out at 14%.

Take `C/C=C/C(=O)C1C(C)=CCCC1(C)C` (stereo not drawn) [alpha damascone]: the “% INHIBITION, ARAT” value is 83% in experiment [2] (Table 5A, 100µM) and 67% in experiment [2] (Table 5B, 10µM). Besides, the “% Control” value in the experiment on Human keratinocytes [3] (Table 7, experiment 1) amounted to 92%; in the experiment on Human keratinocytes [3] (Table 7, experiment 2), 86%.

`CCC(=O)/C=C/C1C(C)=CCCC1(C)C` (stereo not drawn) [alpha methyl ionone]: the inhibition at 100 µM in experiment [1] (setting [6]) is 77%.

As for `CCOC(=O)C1=C(C)C=CCC1(C)C` [ethyl saffranate], the inhibition at 100 µM in experiment [1] (setting [6]) was found to be 49%.

Turning to `C/C=C/C(=O)C1CCC(C)(C)C=C1C` (centres unmarked) [isodamascone], the “% INHIBITION, ARAT” value in experiment [2] (Table 5A, 100µM) is 80%. The inhibition at 100 µM in experiment [1] (setting [6]) was 92%.

For the molecule `CCCCCCCCCCCC(=O)N(C)CC(=O)O` [lauroyl sarcosine], the “% INHIB. ARAT” value in experiment [2] (Table 2, 100 µM) turned out to be 20%. For the same molecule, in experiment [1] (setting [7]), the inhibition at 100 µM came to 0%.

As for `CCCCCCCCC=CCCCCCCCC(=O)NCCC[N+](C)(C)CC(=O)[O-]` [oleamidopropyl betaine], the inhibition at 100 µM in experiment [1] (setting [7]) was 0%.

As for `CCCCCCCCC=CCCCCCCCC[N+](C)(C)[O-]` [oleamine oxide], in experiment [1] (setting [7]), the inhibition at 100 µM was found to be 0%.

For `CCCCCCCC/C=C\CCCCCCCC1=NCCN1CCO` [oleyl hydroxyethyl imidazoline], the activity at 1 µM worked out at 80.7% in the experiment with Human keratinocytes [3] (Homo sapiens, Keratinocyte, Table 4, Exp 1); 78.2% in the experiment on Human keratinocytes [3] (Homo sapiens, Keratinocyte, Table 4, Exp 2); 91.1% in the experiment on Human keratinocytes [3] (Homo sapiens, Keratinocyte, Table 4, Exp 3).

Turning to `CC1=C(/C=C/C(C)=C/C=C/C(C)=C/C(=O)O)C(C)(C)CCC1` [retinoic acid], the “TGase/ DNA (% control)” value with Human keratinocytes [3] (Table 11, 2.5x10^-7M) worked out at 42%; in the experiment with Human keratinocytes [3] (Table 12, 2.5x10^-7M), 32%; with Human keratinocytes [3] (Table 13, 2.5x10^-7M), 52%. In addition, the “mean TGase/ DNA x10^5 ± s.d” value in the experiment with Human keratinocytes [3] (Table 11, 2.5x10^-7M) is reported as 22.47 ± 2.31; in the experiment with Human keratinocytes [3] (Table 12, 2.5x10^-7M), 16.31 ± 2.58. The “% Control” value with Human keratinocytes [4] (Table 9A, Experiment #1) is recorded as 156%; in the experiment with Human keratinocytes [4] (Table 9B, Experiment #2), 163%. The “DPM/Microgram Protein mean” value is given as 3013 DPM/Microgram Protein in the experiment with Human keratinocytes [4] (Table 9A, Experiment #1) and 1494 DPM/Microgram Protein in the experiment with Human keratinocytes [4] (Table 9B, Experiment #2).

Regarding `CCCCCCCCCCCCCCCC(=O)OC/C=C(C)/C=C/C=C(C)/C=C/C1=C(C)CCCC1(C)C` [retinyl palmitate], the activity at […] with Human keratinocytes [3] (Homo sapiens, Keratinocyte, Example 12, 2.5x10^-9M, read-out: keratinocyte TGase I level (% of control)) was 93%. In addition, in the experiment on Human keratinocytes [3] (Table 12, 2.5x10^-8M), the “TGase/ DNA (% control)” value is recorded as 93% and the “mean TGase/ DNA x10^5 ± s.d” value is 47.32 ± 4.22.

On to `CC(=O)c1cc2c(cc1C)C(C)(C)C(C)C2C(C)C` (centres unmarked) [traseolide], for which the “% INHIBITION, ARAT” value in experiment [2] (Table 5A, 100µM) amounted to 41%.
